# In patent US7598255B2 (Janssen Pharmaceutica NV, priority 2005, dated 2009):
# Where a name gives a salt, the structure may show the parent alone.
# Legend:
# rat 5-HT7a receptor = rat 5-HT7a receptor (Rattus norvegicus, UniProt P32305); experiment: Affinity for 5-HT7 receptor binding sites, radioligand binding with [3H]5-CT; conditions: membranes of HEK-293 cells with rat 5-HT7a, 1 nM [3H]5-CT
# Description: The affinity of the compounds described in this invention for the 5-HT7 receptor binding site was evaluated by single competition radioligand binding assay. The assay was performed on membranes prepared from HEK-293 cells that had been subjected to stable transfection with the rat 5-HT7a receptor (GB: NM022938). Cells were scraped from the culture plates, suspended in Tris-HCl 50 mM pH 7.5 and collected through centrifugation (1000 rpm for 5 min). The cell pellets were homogenized (Polytron, 15 s, setting 5) in 50 mM Tris-HCl (pH 7.5), 5 mM EDTA. Following centrifugation (15,000 rpm for 25 min), membranes (135 μg protein/mL) were resuspended in the same buffer and incubated for 60 min at RT with 1 nM [^3H]5-CT in the presence of increasing concentration of test compounds. Nonspecific binding was defined in the presence of 10 μM 5-HT. Incubation was stopped by rapid filtration using the cell harvester (Packard). Radioactivity was counted in a TopCount-NXT (Packard). Experiments were conducted in triplicate.
# 5-HT2B receptor = 5-HT2B receptor (Homo sapiens, UniProt P41595); experiment: Affinity for 5HT2 receptor binding sites, h5-HT2B, [3H]mesulergine; conditions: CHO h5-HT2B membranes
# Description: (§1) Sigmoidal inhibition curves were generated and fitted by nonlinear regression analysis (GraphPad Prism).
# (§2) Receptor binding was performed using the human recombinant 5-HT2A (GB: X57830), 5-HT2B (GB: Z36748) and 5-HT2C (GB: M81778) receptors. The affinity of the compounds for the 3 different human 5-HT2 receptor subtypes was evaluated by competitive radioligand binding assays using [^3H]ketanserin (h5-HT2A) or [^3H]mesulergine (h5-HT2B and h5-HT2C). The assays were performed on membranes prepared from NIH3T3 stably transfected with h5-HT2A or CHO stably transfected with h5-HT2B and h5-HT2C.
# [1] = molecular target: T1, human recombinant 5-HT2C receptor (Homo sapiens, UniProt P28335); experiment: Affinity for 5HT2 receptor binding sites, h5-HT2C, [3H]mesulergine; conditions: CHO h5-HT2C membranes
# T1 sequence (P28335 33-458): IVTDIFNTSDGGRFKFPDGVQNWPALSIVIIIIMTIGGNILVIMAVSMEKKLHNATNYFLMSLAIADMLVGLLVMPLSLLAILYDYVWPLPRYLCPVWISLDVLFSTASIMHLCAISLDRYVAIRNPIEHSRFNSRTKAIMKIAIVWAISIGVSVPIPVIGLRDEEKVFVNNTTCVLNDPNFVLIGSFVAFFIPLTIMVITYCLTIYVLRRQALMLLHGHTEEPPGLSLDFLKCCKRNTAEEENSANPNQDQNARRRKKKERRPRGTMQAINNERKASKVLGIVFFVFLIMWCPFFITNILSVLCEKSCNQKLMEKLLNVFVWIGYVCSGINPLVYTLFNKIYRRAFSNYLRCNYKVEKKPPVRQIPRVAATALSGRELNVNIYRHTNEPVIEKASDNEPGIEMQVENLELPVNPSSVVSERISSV
# Description: as §1, §2
# 5-HT2A receptor = 5-HT2A receptor (Homo sapiens, UniProt P28223); experiment: Affinity for 5-HT2A receptor binding sites, radioligand binding with [3H]ketanserin; conditions: read-out: Ki 5-HT2A, rat cortex membranes (assay 2) or NIH3T3 h5-HT2A membranes (assay 3), table does not say which
# Sequence of 5-HT2B receptor (P41595 whole entry): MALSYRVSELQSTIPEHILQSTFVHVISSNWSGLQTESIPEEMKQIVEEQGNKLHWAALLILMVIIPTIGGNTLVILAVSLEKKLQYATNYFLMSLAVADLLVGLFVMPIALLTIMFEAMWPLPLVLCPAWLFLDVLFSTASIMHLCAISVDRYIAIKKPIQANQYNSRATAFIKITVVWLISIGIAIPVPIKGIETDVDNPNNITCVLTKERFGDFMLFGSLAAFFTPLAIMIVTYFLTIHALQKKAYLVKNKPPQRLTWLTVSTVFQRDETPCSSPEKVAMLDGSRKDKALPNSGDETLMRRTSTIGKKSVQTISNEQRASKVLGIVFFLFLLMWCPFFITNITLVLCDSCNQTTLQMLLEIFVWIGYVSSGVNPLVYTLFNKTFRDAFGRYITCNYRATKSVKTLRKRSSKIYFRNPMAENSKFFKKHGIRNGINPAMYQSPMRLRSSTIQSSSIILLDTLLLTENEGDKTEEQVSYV
# Sequence of rat 5-HT7a receptor (P32305 whole entry): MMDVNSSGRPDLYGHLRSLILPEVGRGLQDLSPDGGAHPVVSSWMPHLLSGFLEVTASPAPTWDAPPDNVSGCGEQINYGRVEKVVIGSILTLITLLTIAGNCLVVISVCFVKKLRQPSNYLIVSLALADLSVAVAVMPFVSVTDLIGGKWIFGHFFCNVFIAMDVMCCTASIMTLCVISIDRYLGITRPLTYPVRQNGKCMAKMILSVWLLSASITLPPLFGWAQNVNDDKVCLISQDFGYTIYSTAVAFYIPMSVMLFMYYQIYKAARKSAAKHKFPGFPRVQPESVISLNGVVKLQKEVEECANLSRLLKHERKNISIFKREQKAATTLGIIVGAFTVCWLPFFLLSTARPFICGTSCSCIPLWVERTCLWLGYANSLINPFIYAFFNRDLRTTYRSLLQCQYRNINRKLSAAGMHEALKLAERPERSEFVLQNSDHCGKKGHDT
Compound,Ki (rat 5-HT7a receptor),Ki (5-HT2B receptor),Ki [1],Ki (5-HT2A receptor)
"COc1ccc(-c2nc(C(C)C)nc3c2CCCNC3)cc1 [Example 67, 2-Isopropyl-4-(4-methoxy-phenyl)-6,7,8,9-tetrahydro-5H-pyrimido[4,5-c]azepine]",5400 nM,80 nM,495 nM,56 nM
"CC(C)c1nc2c(c(-c3ccccc3)n1)CCCNC2 [Example 68, 2-Isopropyl-4-phenyl-6,7,8,9-tetrahydro-5H-pyrimido[4,5-c]azepine]",> 10000 nM,660 nM,7100 nM,80 nM
"c1ccc(Cc2nc3c(c(-c4ccccc4)n2)CCN(Cc2ccccc2)C3)cc1 [Example 72, 2,7-Dibenzyl-4-phenyl-5,6,7,8-tetrahydro-pyrido[3,4-d]pyrimidine]",> 10000 nM,> 10000 nM,> 10000 nM,130 nM
"COc1ccc(-c2nc(Cc3ccccc3)nc3c2CCN(Cc2ccccc2)C3)cc1 [Example 73, 2,7-Dibenzyl-4-(4-methoxy-phenyl)-5,6,7,8-tetrahydro-pyrido[3,4-d]pyrimidine]",> 10000 nM,> 10000 nM,> 10000 nM,140 nM
"CC(C)c1nc2c(c(-c3ccc(F)cc3)n1)CCN(Cc1ccccc1)C2 [Example 74, 7-Benzyl-4-(4-fluoro-phenyl)-2-isopropyl-5,6,7,8-tetrahydro-pyrido[3,4-d]pyrimidine]",> 10000 nM,1900 nM,> 10000 nM,47 nM
"CC(C)c1nc2c(c(-c3ccccc3)n1)CCN(Cc1ccccc1)C2 [Example 75, 7-Benzyl-2-isopropyl-4-phenyl-5,6,7,8-tetrahydro-pyrido[3,4-d]pyrimidine]",5000 nM,3000 nM,> 10000 nM,70 nM
"COc1ccc(-c2nc(Cc3ccccc3)nc3c2CCNC3)cc1 [Example 79, 2-Benzyl-4-(4-methoxy-phenyl)-5,6,7,8-tetrahydro-pyrido[3,4-d]pyrimidine]",300 nM,435 nM,900 nM,115 nM
"CC(C)c1nc2c(c(-c3ccccc3)n1)CCNC2 [Example 81, 2-Isopropyl-4-phenyl-5,6,7,8-tetrahydro-pyrido[3,4-d]pyrimidine]",> 10000 nM,450 nM,6000 nM,25 nM
"CC(C)c1nc2c(c(-c3ccc(F)cc3)n1)CCN(C)C2 [Example 84, 4-(4-Fluoro-phenyl)-2-isopropyl-7-methyl-5,6,7,8-tetrahydro-pyrido[3,4-d]pyrimidine hydrochloride]",> 10000 nM,400 nM,5000 nM,14 nM
"CC(C)c1nc2c(c(-c3ccccc3)n1)CCN(C)C2 [Example 85, 2-Isopropyl-7-methyl-4-phenyl-5,6,7,8-tetrahydro-pyrido[3,4-d]pyrimidine]",> 10000 nM,1150 nM,> 10000 nM,82 nM
"Cc1cc(-c2nc(C(C)C)nc3c2CCN(Cc2ccccc2)C3)cs1 [Example 86, 7-Benzyl-2-isopropyl-4-(5-methyl-thiophen-3-yl)-5,6,7,8-tetrahydro-pyrido[3,4-d]pyrimidine hydrochloride]",9000 nM,4100 nM,> 10000 nM,100 nM
"CC(C)c1nc2c(c(-c3ccsc3)n1)CCN(Cc1ccccc1)C2 [Example 87, 7-Benzyl-2-isopropyl-4-thiophen-3-yl-5,6,7,8-tetrahydro-pyrido[3,4-d]pyrimidine hydrochloride]",> 10000 nM,2000 nM,> 10000 nM,600 nM
"Cc1cc(-c2nc(C(C)C)nc3c2CCNC3)cs1 [Example 88, 2-Isopropyl-4-(5-methyl-thiophen-3-yl)-5,6,7,8-tetrahydro-pyrido[3,4-d]pyrimidine hydrochloride]",550 nM,60 nM,185 nM,13 nM
"CC(C)c1nc2c(c(-c3ccsc3)n1)CCNC2 [Example 89, 2-Isopropyl-4-thiophen-3-yl-5,6,7,8-tetrahydro-pyrido[3,4-d]pyrimidine hydrochloride]",> 10000 nM,40 nM,1400 nM,25 nM
"Cc1cc(-c2nc(C(C)C)nc3c2CCN(C)C3)cs1 [Example 90, 2-Isopropyl-7-methyl-4-(5-methyl-thiophen-3-yl)-5,6,7,8-tetrahydro-pyrido[3,4-d]pyrimidine hydrochloride]",2300 nM,130 nM,1000 nM,17 nM
"CC(C)c1nc2c(c(-c3ccsc3)n1)CCN(C)C2 [Example 91, 2-Isopropyl-7-methyl-4-thiophen-3-yl-5,6,7,8-tetrahydro-pyrido[3,4-d]pyrimidine hydrochloride]",> 10000 nM,200 nM,9000 nM,75 nM
"CC(C)c1nc(-c2ccc(F)cc2)c2c(n1)C(C)CN(Cc1ccccc1)C2 (stereo not drawn) [Example 92, 6-Benzyl-4-(4-fluoro-phenyl)-2-isopropyl-8-methyl-5,6,7,8-tetrahydro-pyrido[4,3-d]pyrimidine]",> 10000 nM,> 10000 nM,> 10000 nM,300 nM
"CC(C)c1nc(-c2ccc(F)c(Cl)c2)c2c(n1)C(C)CN(Cc1ccccc1)C2 (stereo not drawn) [Example 93, 6-Benzyl-4-(3-chloro-4-fluoro-phenyl)-2-isopropyl-8-methyl-5,6,7,8-tetrahydro-pyrido[4,3-d]pyrimidine]",> 10000 nM,> 10000 nM,> 10000 nM,> 10000 nM
"Cc1ccc(-c2nc(C(C)C)nc3c2CN(Cc2ccccc2)CC3C)cc1 (stereo not drawn) [Example 94, 6-Benzyl-2-isopropyl-8-methyl-4-p-tolyl-5,6,7,8-tetrahydro-pyrido[4,3-d]pyrimidine]",> 10000 nM,> 10000 nM,> 10000 nM,> 10000 nM
"CC(C)c1nc(-c2ccccc2)c2c(n1)C(C)CN(Cc1ccccc1)C2 (stereo not drawn) [Example 95, 6-Benzyl-2-isopropyl-8-methyl-4-phenyl-5,6,7,8-tetrahydro-pyrido[4,3-d]pyrimidine]",> 10000 nM,> 10000 nM,> 10000 nM,2000 nM
"CC(C)c1nc(-c2ccc(C(F)(F)F)cc2)c2c(n1)C(C)CN(Cc1ccccc1)C2 (stereo not drawn) [Example 96, 6-Benzyl-2-isopropyl-8-methyl-4-(4-trifluoromethyl-phenyl)-5,6,7,8-tetrahydro-pyrido[4,3-d]pyrimidine]",> 10000 nM,> 10000 nM,> 10000 nM,> 10000 nM
"CC(C)c1nc(-c2ccc(Cl)cc2)c2c(n1)C(C)CN(Cc1ccccc1)C2 (stereo not drawn) [Example 97, 6-Benzyl-4-(4-chloro-phenyl)-2-isopropyl-8-methyl-5,6,7,8-tetrahydro-pyrido[4,3-d]pyrimidine]",> 10000 nM,> 10000 nM,> 10000 nM,> 10000 nM
"CC(C)c1nc(-c2ccsc2)c2c(n1)C(C)CN(Cc1ccccc1)C2 (stereo not drawn) [Example 98, 6-Benzyl-2-isopropyl-8-methyl-4-thiophen-3-yl-5,6,7,8-tetrahydro-pyrido[4,3-d]pyrimidine]",> 10000 nM,> 10000 nM,> 10000 nM,> 10000 nM
"CC(C)c1nc(-c2ccc(-c3ccc(Cl)cc3)cc2)c2c(n1)C(C)CN(Cc1ccccc1)C2 (stereo not drawn) [Example 99, 6-Benzyl-4-(4′-chloro-biphenyl-4-yl)-2-isopropyl-8-methyl-5,6,7,8-tetrahydro-pyrido[4,3-d]pyrimidine]",> 10000 nM,> 10000 nM,> 10000 nM,> 10000 nM
"CC(C)c1nc(-c2ccc(F)c(Cl)c2)c2c(n1)C(C)CNC2 (stereo not drawn) [Example 101, 4-(3-Chloro-4-fluoro-phenyl)-2-isopropyl-8-methyl-5,6,7,8-tetrahydro-pyrido[4,3-d]pyrimidine hydrochloride]",> 10000 nM,> 10000 nM,> 10000 nM,400 nM
"CC(C)c1nc(-c2ccccc2)c2c(n1)C(C)CNC2 (stereo not drawn) [Example 103, 2-Isopropyl-8-methyl-4-phenyl-5,6,7,8-tetrahydro-pyrido[4,3-d]pyrimidine]",> 10000 nM,1000 nM,1000 nM,40 nM
"CC(C)c1nc(-c2ccc(C(F)(F)F)cc2)c2c(n1)C(C)CNC2 (stereo not drawn) [Example 104, 2-Isopropyl-8-methyl-4-(4-trifluoromethyl-phenyl)-5,6,7,8-tetrahydro-pyrido[4,3-d]pyrimidine]",> 10000 nM,500 nM,3000 nM,700 nM
